# Patent US7087616B2, “Pyrazolyl pyrimidines” (Bayer CropScience AG, priority 2001, dated 2006)
# Columns and labels:
# Meloidogyne incognita = experiment: Meloidogyne Test; format: in vivo; details: 20 ppm, nematicidal action by gall formation on lettuce
# Protocol: (§1) To produce a suitable preparation of active compound, 1 part by weight of active compound is mixed with the stated amounts of solvent and emulsifier, and the concentrate is diluted with water to the desired concentration.
# Containers are filled with sand, solution of active compound, Meloidogyne incognita egg/larvae suspension and lettuce seeds. The lettuce seeds germinate and the plants develop. On the roots, galls are formed.
# After the desired period of time, the nematicidal action is determined in % by the gall formation. 100% means that no galls were found; 0% means that the number of galls on the treated plants corresponds to that of the untreated control.
# The amount of solvent, amount of emulsifier, active compounds, active compound concentrations and test results are shown in the Tables below.
# Aphis gossypii = experiment: Critical Concentration/Root-systemic Action; format: in vivo; details: 20 ppm (mg/l soil); root-systemic action, cucumber plants
# Protocol: as §1
# The preparation of active compound is intimately mixed with soil. The concentration of the active compound in the preparation is of practically no importance here, only the amount by weight of active compound per unit volume of soil, which is given in ppm (=mg/l), being decisive. The treated soil is transferred into pots and these are planted with cucumber plants at the cotyledon stage. In this way, the active compound can be taken up from the plant and be transported into the leaves.
# After a further 7 days, evaluation is carried out by counting or estimating the dead animals. The root-systemic action of the active compound is deduced from the mortality figures. It is 100% if all test animals have been killed and 0% if just as many test insects are still alive as in the case of the untreated controls.
# [1] = system: green peach aphids (Myzus persicae); experiment: Myzus Test/Broad Beans; format: in vivo; details: broad bean seedlings dipped
# Protocol: To produce a suitable preparation of active compound, 1 part by weight of active compound is mixed with the stated amount of solvent and the stated amount of emulsifier, and the concentrate is diluted with emulsifier-containing water to the desired concentrations.
# Broad bean (Vicia faba minor) seedlings which are infested by green peach aphids (Myzus persicae) are dipped into a preparation of active compound of the desired concentration and placed into a plastic box.
# After the desired period of time, the kill in % is determined. 100% means that all animals have been killed; 0% means that none of the animals have been killed.
# [2] = system: larvae of the mustard beetle (Phaedon cochlearae); experiment: Phaedon Larvae Test; format: in vivo; details: 500 ppm; cabbage leaves dipped
# Protocol: [table] To produce a suitable preparation of active compound, 1 part by weight of active compound is mixed with the stated amounts of solvent and emulsifier, and the concentrate is diluted with emulsifier-containing water to the desired concentration. Cabbage leaves (Brassica oleracea) are treated by being dipped into the preparation of active compound of the desired concentration and are populated with larvae of the mustard beetle (Phaedon cochlearae) while the leaves are still moist.
# [3] = Aust. J. Chem. 1980, 33, 2291–2298; cited from earlier work
# [4] = Table A 2, emulsifier 2 parts by weight
smiles,measurement,setting,value
COC(=O)CSc1nccc(-n2cc(C)cn2)n1 [drawing 167],Kill rate in % after 14d,"Meloidogyne incognita; Table A 1, emulsifier 1 part by weight",90%
CCOC(=O)CSc1nccc(-n2cccn2)n1 [drawing 197],Kill rate in % 7d after infection,Aphis gossypii,90%
CCOC(=O)CSc1nccc(-n2cc(C)cn2)n1 [drawing 196],Kill rate in % after 6d,[1]; 500 ppm,99%
C=Cc1cnn(-c2ccnc(SCC(=O)OCC)n2)c1 [drawing 173],Kill rate in % after 14d,Meloidogyne incognita; [4],80%
C#Cc1cnn(-c2ccnc(SCC(=O)OCC)n2)c1 [drawing 171],Kill rate in % after 14d,Meloidogyne incognita; [4],90%
O=C(O)CSc1nccc(-n2cc(-c3ccc(Cl)cc3)cn2)n1,Kill rate in % after 14d,Meloidogyne incognita; [4],80%
COC(=O)CSc1nccc(-n2cc(Br)cn2)n1 [drawing 195],Kill rate in % after 6d,[1]; 100 ppm,100%
CCOC(=O)CSc1nccc(-n2ccc(C(C)=O)n2)n1,Kill rate in % after 14d,Meloidogyne incognita; [4],80%
O=C(O)CSc1nccc(-n2cc(-c3ccccc3)cn2)n1,Kill rate in % after 7d,[2],100%
"Cc1cc(C)n(-c2ccnc(SCC(N)=O)n2)n1 [2-{[4-(3,5-dimethyl-1H-pyrazol-1-yl)-2-pyrimidinyl]thio}acetamide]",enhancing effect on phleomycin,[3],no enhancing effect
CCOC(=O)CSc1nccc(-n2cc(Cl)cn2)n1 [drawing 169],Kill rate in % after 14d,Meloidogyne incognita; [4],100%
O=C(O)CSc1nccc(-n2cc(Cl)cn2)n1 [drawing 172],Kill rate in % after 14d,Meloidogyne incognita; [4],85%
COC(=O)CSc1nccc(-n2cc(C)cn2)n1 [drawing 194],Kill rate in % after 6d,[1]; 500 ppm,100%
CCOC(=O)CSc1nccc(-n2cc(-c3ccccc3)cn2)n1 [drawing 207],Kill rate in % after 7d,[2],100%
